The record followed here is US8993585B2, “Cyclic amine substituted pyrimidinediamines as PKC inhibitors” (Rigel Pharmaceuticals, Inc., priority 2007, dated 2015).

The first test deals with Human primary T cells. Put plainly: IL-2 ELISA, Human Primary T Cell, Anti-CD3+CD28+ (Example 3). Type of test: cell-based. To be noted: Homo sapiens, T-cell, 24 h, anti-CD3+CD28 stimulation. Here is the method: Human primary T cell isolation and culture: Human primary T cells were prepared as follows. […] The cells at the serum:ficoll interface were recovered and washed twice with 5 volumes of PBS. […] The primary T-cells were then washed twice with PBS to remove the IL-2.
Primary T cell stimulation and IL2 ELISA: Human primary T cells (100,000 cells per well) were pre-incubated with or without test compound in Yssel's medium for 1 hr at 37° C. Cells were then stimulated by transferring them to round-bottom 96-well plates pre-coated with 1 ug/ml αCD3 and 5 μg/ml αCD28. For counter assay, cells were instead stimulated by adding 8× stock solutions of PMA and ionomycin in Yssels (for final concentrations of 0.5 ng/ml PMA and 0.1 uM ionomycin, both from Calbiochem).
Usually IC50 stands for the point on the concentration scale where inhibition reaches its midpoint. In the case of `CN1C(C)(C)CC(Nc2nc(Nc3nnc(C(F)(F)F)s3)ncc2F)CC1(C)C` [II-13], the IC50 was found to be 11200 nM.

The molecule `COc1ccc(Nc2ncc(F)c(N(Cc3ccccc3)C3CC(C)(C)N(C)C(C)(C)C3)n2)cc1OC(F)F` [Compound I-309] yielded a half-maximal inhibitory concentration (IC50) of 642 nM.

The molecule `C#Cc1cnc(Nc2ccc3c(c2)OCCO3)nc1NC1CC(C)(C)N(C)C(C)(C)C1` [II-156] displayed an IC50 of 5930 nM. Against the preceding molecule, the IC50 is about 9.2-fold higher.

`CC(C)n1c(=O)oc2cc(Nc3ncc(C#N)c(NC4CC(C)(C)NC(C)(C)C4)n3)ccc21` [II-162] came in with a half-inhibitory concentration (IC50) of 1130 nM.

With `CN1C(C)(C)CC(Nc2nc(Nc3nc4ccc([N+](=O)[O-])cc4s3)ncc2F)CC1(C)C` [II-17], inhibition was half-maximal at 845 nM (IC50).

`CCn1c(=O)oc2cc(Nc3ncc(F)c(NC4CC(C)(C)N(C)C(C)(C)C4)n3)ccc21` [II-46] yielded an IC50 of 391 nM.

In turn, `CCN1C(=O)C(F)(F)Oc2cc(Nc3ncc(C#N)c(NC4CC(C)(C)N(C)C(C)(C)C4)n3)cnc21` [II-65] came in with an IC50 of 255 nM.

Regarding `COc1cc(Nc2ncc(F)c(NC3C[C@H](C)N(C)[C@@H](C)C3)n2)cc(-n2nnnc2C)c1` (stereo partly drawn) [IV-1, 5-Fluoro-N2-[3-methoxy-5-(5-methyl-tetrazol-1-yl)]phenyl-N4-(1,2,6,-trimethylpiperidin-4-yl)-2,4-pyrimidinediamine, trans isomer], half-maximal inhibition (IC50) required 176 nM. The IC50 values of the last two molecules are within 1.5-fold of each other.

On to `CN1C(C)(C)CC(Nc2nc(Nc3nc(-c4ccc(N5CCCC5)cc4)cs3)ncc2F)CC1(C)C` [II-133], for which the IC50 worked out at 2220 nM.

On to `CCn1c(=O)oc2ccc(Nc3ncc(F)c(NC4CC(C)(C)NC(C)(C)C4)n3)cc21` [II-174], for which the IC50 came to 2940 nM.

On to `CN1C(C)(C)CC(Nc2nc(Nc3nc(-c4ccc(C(F)(F)F)cc4)cs3)ncc2F)CC1(C)C` [II-140], for which half-maximal inhibition (IC50) was put at 590 nM.

With `CN1CCN(C(=O)C2COc3cc(Nc4ncc(F)c(NC5CC(C)(C)NC(C)(C)C5)n4)ccc3O2)CC1` (stereo not shown) [II-160], half-maximal inhibition (IC50) required 17900 nM.

For `CN1C(=O)C(F)(F)Oc2cc(Nc3ncc(Cl)c(NC4CC(C)(C)N(C)C(C)(C)C4)n3)ccc21` [II-28], inhibition was half-maximal at 550 nM (IC50).

Molecule `COc1ccc(Nc2ncc(F)c(N(Cc3ccc(-c4ccccc4)cc3)C3CC(C)(C)N(C)C(C)(C)C3)n2)cc1OC(F)F` [Compound I-319] yielded a concentration for half-maximal inhibition (IC50) of 2850 nM.

As to `CN1C(C)(C)CC(Nc2nc(Nc3cc4c(cc3Cl)OCCO4)ncc2F)CC1(C)C` [II-116], the half-inhibitory concentration (IC50) was determined as 1470 nM.

In turn, `CN1C(C)(C)CC(Nc2nc(Nc3ccc(OC(F)(F)F)cc3)ncc2F)CC1(C)C` [Compound I-231] showed an IC50 of 1750 nM.

`COc1cnc(Nc2ccc3c(c2)OCCO3)nc1NC1CC(C)(C)N(C)C(C)(C)C1` [II-129] displayed an IC50 of 10900 nM.

Regarding `CN1C(=O)C(C)(C)Oc2cc(Nc3ncc(F)c(NC4CC(C)(C)N(C)C(C)(C)C4)n3)cnc21` [II-54], the IC50 turned out to be 373 nM.

Take `CN1C(C)(C)CC(Nc2nc(Nc3ccc4c(c3)OC(C)(C)C(=O)N4CCCF)ncc2C#N)CC1(C)C` [II-81]: the IC50 amounted to 567 nM.

The same test, now with this note: anti-CD3+CD28 stimulation, 24 hours.
With `CC1(C)CC(Nc2nc(Nc3ccc(F)c(-n4cnnn4)c3)ncc2F)CC(C)(C)N1` [Compound I-467], the IC50 came to 460 nM. This lies in the sub-micromolar range.

Regarding `CN1C(C)(C)CC(Nc2nc(Nc3ccc4c(c3)OCO4)ncc2F)CC1(C)C` [II-32], the IC50 is 864 nM.

As to `CN1C(C)(C)CC(Nc2nc(Nc3cccc(O)c3)ncc2F)CC1(C)C` [Compound I-327], the IC50 is 5080 nM.

The molecule `COC(=O)N1CCN(c2ccc(Nc3ncc(F)c(NC4CC(C)(C)N(C)C(C)(C)C4)n3)cc2Cl)CC1` [Compound I-62] registered an IC50 of 257 nM.

The molecule `CN1C(C)(C)CCC(Nc2nc(Nc3ccc(N4CCOCC4)c(C(F)(F)F)c3)ncc2F)CC1(C)C` (stereo not shown) [Compound I-261, 5-Fluoro-N2-[4-morpholine-3-trifluoromethyl]phenyl-N4-(1,2,2,7,7-pentamethylazepan-4-yl)-2,4-pyrimidinediamine] had an IC50 of 4670 nM.

In the case of `Cc1cnc(Nc2ccc(N3CCN(C)CC3)c(C(F)(F)F)c2)nc1NC1CC(C)(C)N(C)C(C)(C)C1` [Compound I-30], the IC50 is 335 nM.

Consider `CC1(C)CC(Nc2nc(Nc3ccc(N4CCN(S(C)(=O)=O)CC4)c(Cl)c3)ncc2F)CC(C)(C)N1` [Compound I-258], for which the IC50 came to 399 nM.

In the case of `CN1C(C)(C)CC(Nc2nc(Nc3cccc(OC(F)(F)F)c3)ncc2F)C1(C)C` (stereo not shown) [Compound I-284, 5-Fluoro-N2-(3-trifluoromethoxy)phenyl-N4-(1,2,2,5,5-pentamethylpyrrolidin-3-yl)-2,4-pyrimidinediamine], the IC50 was found to be 3040 nM.

`COC(=O)N1CCN(c2cc(Nc3ncc(F)c(NC4CC(C)(C)N(C)C(C)(C)C4)n3)ccc2Cl)CC1` [Compound I-43] had an IC50 of 890 nM. Compared with the last molecule, the IC50 is about 3.4-fold lower.

Turning to `COc1ccc(Nc2ncc(F)c(NC3CC(C)(C)N(C)C(C)(C)C3)n2)cc1-c1cnn(C)c1` [Compound I-184], the IC50 came to 2290 nM.

For the molecule `COc1cc(Nc2ncc(F)c(NC3CC(C)(C)N(C)C(C)(C)C3)n2)ccc1N1CCN(C)CC1` [Compound I-55], the IC50 came to 1570 nM.

Regarding `CN1C(C)(C)CC(Nc2nc(Nc3ccc(N4CCN(S(C)(=O)=O)CC4)c(Cl)c3)ncc2F)CC1(C)C` [Compound I-61], the IC50 came to 94 nM.

In turn, `COc1ccc(Nc2ncc(F)c(NC3CC(C)(C)N(C)C3(C)C)n2)cc1OC` (stereo not shown) [Compound I-281, 5-Fluoro-N2-(3,4-dimethoxy)phenyl-N4-(1,2,2,5,5-pentamethylpyrrolidin-3-yl)-2,4-pyrimidinediamine] gave an IC50 of 17100 nM.

In the case of `CN1C(C)(C)CC(Nc2nc(Nc3ccc(OC(F)(F)F)c(Br)c3)ncc2F)CC1(C)C` [Compound I-177], the IC50 came out at 764 nM.

In turn, `CN1CCN(c2ccc(Nc3ncc(F)c(NC4CC(C)(C)N(C)C(C)(C)C4)n3)cc2CO)CC1` [Compound I-63] showed an IC50 of 1850 nM.

As to `Cc1nnnn1-c1ccc(Nc2ncc(F)c(NC3CC(C)(C)N(C)C(C)(C)C3)n2)cc1` [Compound I-454], the IC50 was found to be 6250 nM. This IC50 is about 3.4-fold higher than that of the molecule before.

The molecule `CN1C(C)(C)CC(Nc2nc(Nc3ccc4c(c3)CCC(=O)N4)ncc2F)CC1(C)C` [II-2] registered an IC50 of 1400 nM.

For `COc1cc(Nc2ncc(C(N)=O)c(NC3CC(C)(C)NC(C)(C)C3)n2)cc(-n2cnnn2)c1` [Compound I-389], half-maximal inhibition (IC50) required 5420 nM.

`CC(C)N1C(=O)C(C)(C)Oc2cc(Nc3ncc(C#N)c(NC4CC(C)(C)NC(C)(C)C4)n3)ccc21` [II-75] showed a concentration for half-maximal inhibition (IC50) of 476 nM.

For `COc1ccc(Nc2ncc([N+](=O)[O-])c(NC3CC(C)(C)N(C)C(C)(C)C3)n2)cc1Cl` [Compound I-71], the midpoint of inhibition, the IC50, lay at 632 nM.

On to `CN1C(C)(C)CC(Nc2nc(Nc3cccc(-c4ccncc4)c3)ncc2F)CC1(C)C` [Compound I-79], for which half-maximal inhibition (IC50) was put at 552 nM.

`CN1C(C)(C)CC(Nc2nc(Nc3ccc(C(=O)NCc4cccnc4)cc3)ncc2F)CC1(C)C` [Compound I-367]: half-maximal inhibition (IC50) required 3700 nM.

Turning to `CN1C(C)(C)CC(Nc2nc(Nc3ccc(N4CCOCC4)c(C(F)(F)F)c3)ncc2Cl)CC1(C)C` [Compound I-241], the IC50 came to 361 nM.

Molecule `CN1CCN(c2ccc(Nc3ncc(F)c(NC4CC(C)(C)NC(C)(C)C4)n3)cc2Cl)CC1` [Compound I-256] came in with an IC50 of 246 nM.

The molecule `CC(=O)N1C(C)(C)CC(Nc2nc(Nc3ccc(N4CCN(S(C)(=O)=O)CC4)c(C(F)(F)F)c3)ncc2F)CC1(C)C` [Compound I-215] had an IC50 of 25500 nM. Against the preceding molecule, the IC50 is about 100-fold higher.

`COC(=O)C=CN1C(C)(C)CC(Nc2nc(Nc3cc(OC)cc(OC)c3)ncc2F)CC1(C)C` [Compound I-298] gave an IC50 of 1080 nM.

In turn, `COc1ccc(Nc2ncc(C(N)=O)c(NC3CC(C)(C)N(C)C(C)(C)C3)n2)cc1Cl` [Compound I-85] showed an IC50 of 631 nM.

`Cc1cc(Nc2ncc(F)c(NC3CC(C)(C)N(C)C(C)(C)C3)n2)ccc1Br` [Compound I-111] came in with an IC50 of 490 nM.

In turn, `CN1CCN(c2ccc(Nc3ncc(F)c(NC4CC(C)(C)N(C)C4(C)C)n3)cc2C(F)(F)F)CC1` (stereo not shown) [Compound I-285, 5-Fluoro-N2-[4-(4-methylpiperazin-1-yl)-3-(trifluoromethyl)]phenyl-N4-(1,2,2,5,5-pentamethylpyrrolidin-3-yl)-2,4-pyrimidinediamine] displayed an IC50 of 1230 nM.

Regarding `COc1ccc(Nc2ncc(F)c(N(C)C3CC(C)(C)N(C)C(C)(C)C3)n2)cc1Cl` [Compound I-58], the IC50 was 2000 nM.

`COc1ccc(Nc2ncc(F)c(NC3CC(C)(C)N(C)C(C)(C)C3)n2)cc1OCCN(C)C` [Compound I-421]: half-maximal inhibition (IC50) required 4630 nM. Against the preceding molecule, the IC50 is about 2.3-fold higher.

In turn, `CN1C(C)(C)CC(Nc2nc(Nc3cc(OCC(F)(F)F)cc(OCC(F)(F)F)c3)ncc2C(N)=O)CC1(C)C` [Compound I-406] showed an IC50 of 480 nM.

`CCOC(=O)c1cnc(Nc2ccc(N3CCN(S(C)(=O)=O)CC3)c(C(F)(F)F)c2)nc1NC1CC(C)(C)N(C)C(C)(C)C1` [Compound I-83]: the IC50 is 7760 nM.

As for `CN1C(C)(C)CC(Nc2nc(Nc3ccc(C#N)c(Cl)c3)ncc2C(F)(F)F)CC1(C)C` [Compound I-33], 532 nM corresponded to half-maximal inhibition (IC50).

The molecule `COc1cc(Nc2ncc(F)c(NC3CC(C)(C)NC(C)(C)C3)n2)cc(OC)c1` [Compound I-371] had a 50% inhibitory concentration (IC50) of 550 nM. This IC50 and that of the molecule before are within 1.5-fold of each other.

Molecule `Cc1nnnn1-c1cccc(Nc2ncc(F)c(NC3CC(C)(C)N(C)C(C)(C)C3)n2)c1` [Compound I-396] gave an IC50 of 100 nM. Compared with the last molecule, the IC50 is about 5.5-fold lower.

The molecule `CN1CCN(c2c(F)cc(Nc3ncc(F)c(NC4CC(C)(C)N(C)C(C)(C)C4)n3)cc2F)CC1` [Compound I-40] came in with an IC50 of 461 nM.

On to `COc1ccc(Nc2ncc(F)c(NC3CC(C)(C)N(C)C(C)(C)C3)n2)cc1-c1cc2ccccc2s1` [Compound I-195], for which the IC50 worked out at 1120 nM.

The molecule `COc1cc(Nc2ncc(F)c(NC3CCC(C)(C)N(C)C(C)(C)C3)n2)cc(OC)c1OC` (stereo not shown) [Compound I-266, 5-Fluoro-N2-[3,4,5-trimethoxy]phenyl-N4-(1,2,2,7,7-pentamethylazepan-4-yl)-2,4-pyrimidinediamine] had an IC50 of 11200 nM. This IC50 lies about 10-fold higher than the previous one.
